Reference: publication PMC10659437 (bioRxiv, 2023)

How the values were obtained:
Type in all cases: cell-based
[1] = biological target: T1, human trace amine-associated receptor 1 (hTAAR1, hTA1) (Homo sapiens, UniProt Q96RJ0); experiment: cryo-EM structure of the hTA1-Gs complex
T1 sequence (Q96RJ0 1-339): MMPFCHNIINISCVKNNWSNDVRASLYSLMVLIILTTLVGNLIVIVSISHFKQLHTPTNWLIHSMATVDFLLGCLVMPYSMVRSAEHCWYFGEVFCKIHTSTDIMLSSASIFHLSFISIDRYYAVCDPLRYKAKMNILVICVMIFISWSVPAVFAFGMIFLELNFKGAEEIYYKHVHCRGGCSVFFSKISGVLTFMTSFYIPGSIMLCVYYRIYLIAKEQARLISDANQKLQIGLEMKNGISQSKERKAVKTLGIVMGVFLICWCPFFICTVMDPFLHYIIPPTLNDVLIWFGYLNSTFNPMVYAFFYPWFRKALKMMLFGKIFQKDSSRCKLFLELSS

[2] = biological target: T1, human trace amine-associated receptor 1 (hTAAR1, hTA1); experiment: GloSensor cAMP accumulation, hTA1-transfected HEK293T cells
[3] = biological target: T1, human trace amine-associated receptor 1 (hTAAR1, hTA1); experiment: GloSensor cAMP accumulation, hTA1-transfected HEK293T cells, with pocket mutants

SMILES	EC50 [2]	other results
CC[C@@H](C[C@H]1COC(N)=N1)c1ccccc1 [Ro5256390]	–	EC50 [1]: ~5 nM
Cc1c(F)cccc1[C@H]1COC(N)=N1 [Ro5263397]	1.48 nM	–
CN1CC2c3ccccc3Oc3ccc(Cl)cc3C2C1 (stereo not shown) [asenapine]	–	EC50 [3]: 6.56 ± 0.01 pEC50
NCCc1ccc(O)cc1 [tyramine]	6.38 ± 0.04 pEC50	–
